According to patent US20260107941A1:
Converted amounts (≈) assume the structure as drawn. “And” between values parts separate entries of the source, which are not always exact repeats. Identical values can stand only once.

Key:
Rhizoctonia solani [1] = assay: Pot method, control effect on Rhizoctonia solani in cotton seedlings; format: in vivo; settings: 50 mL applied on 1 d, 3 d, 5 d, 7 d, after 10 d
Method: A Rhizoctonia solani suspension (10^7 CFU/mL) was added to a matrix at a ratio of 20:1 (w/w), mixed well, germinated cotton seeds were sown into the matrix, and then 50 mL of the medicinal solution was applied on 1 d, 3 d, 5 d, and 7 d separately. After culturing for 10 d, the incidence rate was investigated and the control effect was calculated.

Alternaria alternata = assay: Mycelial growth rate method, toxicity to Alternaria alternata; format: cell-based; settings: A. alternata, mycelial growth on drug-containing PDA plate, 28° C., 3 d to 7 d
Method: (§1) A PDA solid medium was heated, melted, shaken, and cooled to about 45° C.; a medicinal solution (filtered with a 0.22 μm sterile filter) and the PDA solid medium were mixed, cooled to obtain a drug-containing medium plate with a certain concentration; a phytopathogen cake was placed in the center of the plate, and cultured at 28° C. for 3 d to 7 d; when the hyphae of the phytopathogen in the control group were about to fill the dish, a colony diameter was measured using a cross method, and the mycelial growth inhibition rate and toxicity were calculated. [formula]

pear fire blight = assay: Field test, control effect on pear fire blight in fragrant pear orchards; settings: 3 L sprayed per pear tree, 3 times at 7 d/time
[2] = test system: Colletotrichum orbiculare; assay: Mycelial growth rate method, toxicity to Colletotrichum orbiculare; format: cell-based; settings: C. orbiculare, mycelial growth on drug-containing PDA plate, 28° C., 3 d to 7 d
Method: as §1

Cladosporium fulvum = assay: Mycelial growth rate method, toxicity to Cladosporium fulvum; format: cell-based; settings: Fulvia fulva; C. fulvum; mycelial growth on drug-containing PDA plate, 28° C., 3 d to 7 d
Method: as §1

Rhizoctonia solani [3] = assay: Mycelial growth rate method, toxicity to Rhizoctonia solani; format: cell-based; settings: R. solani, mycelial growth on drug-containing PDA plate, 28° C., 3 d to 7 d
Method: as §1

Xanthomonas oryzae = assay: microbe, parasite or virus in culture; format: cell-based
[4] = test system: Pseudomonas syringae pv. lachrymans; assay: microbe, parasite or virus in culture; format: cell-based; settings: P. syringae pv. lachrymans
Fusarium oxysporum = assay: Mycelial growth rate method, toxicity to Fusarium oxysporum; format: cell-based; settings: F. oxysporum, mycelial growth on drug-containing PDA plate, 28° C., 3 d to 7 d
Method: as §1

Acidovorax citrulli = assay: Turbidity method, toxicity to Acidovorax citrulli; format: cell-based; settings: Paracidovorax citrulli; A. citrulli; turbidity in NB medium, shaking culture 30° C., 2 d to 3 d
Erwinia amylovory = assay: Turbidity method, toxicity to Erwinia amylovory; format: cell-based; settings: E. amylovory, turbidity in NB medium, shaking culture 30° C., 2 d to 3 d

COC(=O)Nc1nc2ccccc2[nH]1 [carbendazim, reference compound]
Control effect (%) (Rhizoctonia solani [1]; 100 mg/L): 49.18d %
Incidence (%) (Rhizoctonia solani [1]; 100 mg/L): 25.83%

CCN(CC)c1ccc(C=O)c(O)c1
EC50 (Alternaria alternata): 200 µg/mL (≈ 1040 µM)
Control effect (%) 7 d after last dose (pear fire blight; 200 mg/L): 40.85c %
Control effect (%) 14 d after last dose (pear fire blight; 200 mg/L): 35.14c %
Control effect (%) 7 d after last dose (pear fire blight; 300 mg/L): 50.37% and 50.37b %
Control effect (%) 14 d after last dose (pear fire blight; 300 mg/L): 44.71% and 44.71b %
Control effect (%) 7 d after last dose (pear fire blight; 400 mg/L): 58.13% and 58.13a %
Control effect (%) 14 d after last dose (pear fire blight; 400 mg/L): 50.81% and 50.81a %
EC50 [2]: 93.8 µg/mL (≈ 485 µM)
EC50 (Cladosporium fulvum): 113 µg/mL (≈ 583 µM)
EC50 (Rhizoctonia solani [3]): 14.5 µg/mL (≈ 75 µM)
EC50 (Xanthomonas oryzae): 136 µg/mL (≈ 706 µM)
Control effect (%) (Rhizoctonia solani [1]; 50 mg/L): 60.66% and 60.66c %
Incidence (%) (Rhizoctonia solani [1]; 50 mg/L): 20.00%
Control effect (%) (Rhizoctonia solani [1]; 100 mg/L): 77.05% and 77.05b %
Incidence (%) (Rhizoctonia solani [1]; 100 mg/L): 11.67%
Control effect (%) (Rhizoctonia solani [1]; 150 mg/L): 86.89% and 86.89a %
Incidence (%) (Rhizoctonia solani [1]; 150 mg/L): 6.67%
EC50 [4]: 114 µg/mL (≈ 592 µM)
EC50 (Fusarium oxysporum): 40.8 µg/mL (≈ 211 µM)
EC50 (Acidovorax citrulli): 108 µg/mL (≈ 561 µM)
EC50 (Erwinia amylovory): 92.1 µg/mL (≈ 477 µM)

zhongshengmycin [reference compound]
Control effect (%) 7 d after last dose (pear fire blight; 50 mg/L): 53.06ab %
Control effect (%) 14 d after last dose (pear fire blight; 50 mg/L): 47.36b %
